Results: patent publication US20240092835A1, “NOVEL PEPTIDES CAPABLE OF ALTERING NK CELL ACTIVITY” (Massachusetts Institute of Technology, priority 2022, published 2024)
“Also recorded” adds a separate entry of the source. Where no end group is shown, it is not given here.

Experiments:
NKG2A+/NKG2C− NK cells = experiment: NK cell activation markers in NKG2A+/NKG2C- NK cells incubated with peptide and K562 expressing HLA-E (inhibition); assay type: cell-based, human; conditions: for effect on NKG2A+/NKG2C− NK cell inhibition (in words): K562 expressing HLA-E, CD107a, IFNG, TNF, CCL3; for percentage of CCL3+ NK cells / percentage of CD107a+ NK cells / percentage of IFNG+ NK cells / percentage of TNF+ NK cells: NKG2A+/NKG2C- NK cells, K562/HLA-E
Summary of the method: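 Percent-positive cells for NK activation surface markers were measured after NK cells met peptide-treated K562 cells expressing HLA-E. A decrease in that fraction was scored as inhibition and an increase as activation; NKG2A−/NKG2C− cells served as controls.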

CD94/NKG2A = CD94/NKG2A (Homo sapiens, UniProt P26715+Q13241); experiment: Steady-state surface plasmon resonance of peptide-HLA-E complex with CD94/NKG2A; assay type: binding; conditions: for Binding of peptide-HLA-E complexes to CD94/NKG2A normalized to a theoretical Rmax: steady-state SPR
Chain of CD94/NKG2A (P26715 94-233 limits assumed): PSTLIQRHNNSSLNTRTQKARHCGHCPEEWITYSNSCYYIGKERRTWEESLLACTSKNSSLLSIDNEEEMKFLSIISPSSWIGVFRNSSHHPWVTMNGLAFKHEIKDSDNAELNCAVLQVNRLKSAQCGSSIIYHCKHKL
Chain of CD94/NKG2A (Q13241 32-179 limits assumed): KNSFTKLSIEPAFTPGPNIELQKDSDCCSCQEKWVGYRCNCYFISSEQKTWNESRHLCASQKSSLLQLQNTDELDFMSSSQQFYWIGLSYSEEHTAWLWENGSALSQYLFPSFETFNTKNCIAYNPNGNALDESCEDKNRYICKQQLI
Method: Binding affinity of novel peptides linked to HLA-E was determined using surface plasmon resonance (SPR), a methodology used to study protein-protein interactions (Tables 15-19). The peptide-HLA-E complex (generated as a single chain trimer) was immobilized on the sensor chip surface and CD94/NKG2A or CD94/NKG2C were flowed over. Steady-state surface plasmon resonance experiments were performed with a Biacore T200 instrument. CD94/NKG2x in HBS-EP+ buffer was injected as analyte in a concentration range of 0.1 μM to 102.4 μM and flow rate of 10 μL/min at 25° C. Data was fit with Prism 9.4 (GraphPad Software Inc; San Diego CA) to a “one site, specific binding” model. Series S CM5 chips were coupled to neutravidin and utilized. Biotinylated pMHC was immobilized at approximately 400 RU. KD values calculated by Biacore software are reported. Rmax, fit values were calculated by Biacore software. Rmax, theoretical values were calculated using the analyte/ligand mass ratio (0.66) multiplied by the amount of ligand coupled to the chip.

QMPSRSLLF [human1, QMPSRSLLF]
effect on NKG2A+/NKG2C− NK cell inhibition (in words) (NKG2A+/NKG2C− NK cells; listed as SEQ ID NO. 7): mild inhibitory effects
effect on NKG2A+/NKG2C− NK cell inhibition (in words) (NKG2A+/NKG2C− NK cells; listed as h1): mild inhibitory effects; also recorded: strong inhibitory
percentage of CCL3+ NK cells (NKG2A+/NKG2C− NK cells; Trial 1): 31.8%
percentage of CD107a+ NK cells (NKG2A+/NKG2C− NK cells; Trial 1): 15.3%
percentage of IFNG+ NK cells (NKG2A+/NKG2C− NK cells; Trial 1): 4.26%
percentage of TNF+ NK cells (NKG2A+/NKG2C− NK cells; Trial 1): 1.66%
percentage of CCL3+ NK cells (NKG2A+/NKG2C− NK cells; Trial 2): 47%
percentage of CD107a+ NK cells (NKG2A+/NKG2C− NK cells; Trial 2): 25.7%
percentage of IFNG+ NK cells (NKG2A+/NKG2C− NK cells; Trial 2): 9.68%
percentage of TNF+ NK cells (NKG2A+/NKG2C− NK cells; Trial 2): 3.94%
percentage of CCL3+ NK cells (NKG2A+/NKG2C− NK cells; Trial 3): 28.8%
percentage of CD107a+ NK cells (NKG2A+/NKG2C− NK cells; Trial 3): 28.5%
percentage of IFNG+ NK cells (NKG2A+/NKG2C− NK cells; Trial 3): 15.5%
percentage of TNF+ NK cells (NKG2A+/NKG2C− NK cells; Trial 3): 9.23%
percentage of CCL3+ NK cells (NKG2A+/NKG2C− NK cells; Trial 4): 14.2%
percentage of CD107a+ NK cells (NKG2A+/NKG2C− NK cells; Trial 4): 14.6%
percentage of IFNG+ NK cells (NKG2A+/NKG2C− NK cells; Trial 4): 3.06%
percentage of TNF+ NK cells (NKG2A+/NKG2C− NK cells; Trial 4): 2.61%
percentage of CCL3+ NK cells (NKG2A+/NKG2C− NK cells; Trial 5): 25.5%
percentage of CD107a+ NK cells (NKG2A+/NKG2C− NK cells; Trial 5): 9.4%
percentage of IFNG+ NK cells (NKG2A+/NKG2C− NK cells; Trial 5): 2.48%
percentage of TNF+ NK cells (NKG2A+/NKG2C− NK cells; Trial 5): 1.56%
percentage of CCL3+ NK cells (NKG2A+/NKG2C− NK cells; Trial 6): 16.6%
percentage of CD107a+ NK cells (NKG2A+/NKG2C− NK cells; Trial 6): 13.3%
percentage of IFNG+ NK cells (NKG2A+/NKG2C− NK cells; Trial 6): 2.26%
percentage of TNF+ NK cells (NKG2A+/NKG2C− NK cells; Trial 6): 1.77%
binding of peptide-HLA-E complex to CD94/NKG2A normalized to a fitted Rmax (CD94/NKG2A; CD94/NKG2A concentration 0 μM): −0.006
binding of peptide-HLA-E complex to CD94/NKG2A normalized to a fitted Rmax (CD94/NKG2A; CD94/NKG2A concentration 0.1 μM): 0.035
binding of peptide-HLA-E complex to CD94/NKG2A normalized to a fitted Rmax (CD94/NKG2A; CD94/NKG2A concentration 0.2 μM): 0.068
binding of peptide-HLA-E complex to CD94/NKG2A normalized to a fitted Rmax (CD94/NKG2A; CD94/NKG2A concentration 0.4 μM): 0.128
binding of peptide-HLA-E complex to CD94/NKG2A normalized to a fitted Rmax (CD94/NKG2A; CD94/NKG2A concentration 0.8 μM): 0.221
binding of peptide-HLA-E complex to CD94/NKG2A normalized to a fitted Rmax (CD94/NKG2A; CD94/NKG2A concentration 1.6 μM): 0.349
binding of peptide-HLA-E complex to CD94/NKG2A normalized to a fitted Rmax (CD94/NKG2A; CD94/NKG2A concentration 3.2 μM): 0.506
binding of peptide-HLA-E complex to CD94/NKG2A normalized to a fitted Rmax (CD94/NKG2A; CD94/NKG2A concentration 6.4 μM): 0.664
binding of peptide-HLA-E complex to CD94/NKG2A normalized to a fitted Rmax (CD94/NKG2A; CD94/NKG2A concentration 12.8 μM): 0.798
binding of peptide-HLA-E complex to CD94/NKG2A normalized to a fitted Rmax (CD94/NKG2A; CD94/NKG2A concentration 25.6 μM): 0.896
binding of peptide-HLA-E complex to CD94/NKG2A normalized to a fitted Rmax (CD94/NKG2A; CD94/NKG2A concentration 51.2 μM): 0.950
binding of peptide-HLA-E complex to CD94/NKG2A normalized to a fitted Rmax (CD94/NKG2A; CD94/NKG2A concentration 102.4 μM): 0.996
Binding of peptide-HLA-E complexes to CD94/NKG2A normalized to a theoretical Rmax (CD94/NKG2A; CD94/NKG2A analyte concentration 0.000 μM): −0.005
Binding of peptide-HLA-E complexes to CD94/NKG2A normalized to a theoretical Rmax (CD94/NKG2A; CD94/NKG2A analyte concentration 0.100 μM): 0.025
Binding of peptide-HLA-E complexes to CD94/NKG2A normalized to a theoretical Rmax (CD94/NKG2A; CD94/NKG2A analyte concentration 0.200 μM): 0.049
Binding of peptide-HLA-E complexes to CD94/NKG2A normalized to a theoretical Rmax (CD94/NKG2A; CD94/NKG2A analyte concentration 0.400 μM): 0.093
Binding of peptide-HLA-E complexes to CD94/NKG2A normalized to a theoretical Rmax (CD94/NKG2A; CD94/NKG2A analyte concentration 0.800 μM): 0.160
Binding of peptide-HLA-E complexes to CD94/NKG2A normalized to a theoretical Rmax (CD94/NKG2A; CD94/NKG2A analyte concentration 1.600 μM): 0.252
Binding of peptide-HLA-E complexes to CD94/NKG2A normalized to a theoretical Rmax (CD94/NKG2A; CD94/NKG2A analyte concentration 3.200 μM): 0.365
Binding of peptide-HLA-E complexes to CD94/NKG2A normalized to a theoretical Rmax (CD94/NKG2A; CD94/NKG2A analyte concentration 6.400 μM): 0.479
Binding of peptide-HLA-E complexes to CD94/NKG2A normalized to a theoretical Rmax (CD94/NKG2A; CD94/NKG2A analyte concentration 12.800 μM): 0.577
Binding of peptide-HLA-E complexes to CD94/NKG2A normalized to a theoretical Rmax (CD94/NKG2A; CD94/NKG2A analyte concentration 25.600 μM): 0.647
Binding of peptide-HLA-E complexes to CD94/NKG2A normalized to a theoretical Rmax (CD94/NKG2A; CD94/NKG2A analyte concentration 51.200 μM): 0.686
Binding of peptide-HLA-E complexes to CD94/NKG2A normalized to a theoretical Rmax (CD94/NKG2A; CD94/NKG2A analyte concentration 102.400 μM): 0.719
